Assay results: ChEMBL document CHEMBL1126440, “Design and synthesis of azabicyclic muscarinic agonists incorporating an oxime ether functionality” (Bioorg Med Chem Lett, 1992)

Assays:
[1] = target: Muscarinic acetylcholine receptor; assay: Displacement of [3H]- oxotremorine-M (OXO-M) binding from muscarinic receptors of rat cerebral cortex; 12-62; assay type: tissue-based
[2] = Ratio of change in mean blood pressure (BP) to that of mean power spectrum of EEG; assay type: functional
Rattus norvegicus [3] = assay: Effective dose required to cause 50% fall in mean blood pressure (BP) […] of urethane anesthetized rats after iv administration of compound; assay type: functional
Rattus norvegicus [4] = assay: Dose required to produce a change in the mean power spectrum of EEG equivalent to that of a standard dose (0.32 mg/Kg i.v.) of arecoline after iv administration of compound; assay type: functional
[5] = target: Muscarinic acetylcholine receptor (Rattus norvegicus) (UniProt P08482+P08483+P08485+P08911+P10980); assay: Relative affinity of oxotremorine-M (OXO-M) and [3H]quinuclidinyl benzilate (QNB) for muscarinic receptors; assay type: protein assay
[6] = target: Muscarinic acetylcholine receptor; assay: Displacement of [3H]quinuclidinyl benzilate(QNB) binding from muscarinic receptors of rat cerebral cortex; 1400-2700; assay type: tissue-based
[7] = target: Muscarinic acetylcholine receptor; assay: Displacement of [3H]quinuclidinyl benzilate(QNB) binding from muscarinic receptors of rat cerebral cortex; 2600-4400; assay type: tissue-based
[8] = target: Muscarinic acetylcholine receptor; assay: Displacement of [3H]- oxotremorine-M (OXO-M) binding from muscarinic receptors of rat cerebral cortex; 44-48; assay type: tissue-based
[9] = target: Muscarinic acetylcholine receptor; assay: Displacement of [3H]quinuclidinyl benzilate(QNB) binding from muscarinic receptors of rat cerebral cortex; 2700-3000; assay type: tissue-based
[10] = target: Muscarinic acetylcholine receptor; assay: Displacement of [3H]- oxotremorine-M (OXO-M) binding from muscarinic receptors of rat cerebral cortex; 230-335; assay type: tissue-based
[11] = target: Muscarinic acetylcholine receptor; assay: Displacement of [3H]quinuclidinyl benzilate(QNB) binding from muscarinic receptors of rat cerebral cortex; 1400-2900; assay type: tissue-based
[12] = target: Muscarinic acetylcholine receptor; assay: Displacement of [3H]- oxotremorine-M (OXO-M) binding from muscarinic receptors of rat cerebral cortex; 66-83; assay type: tissue-based
[13] = target: Muscarinic acetylcholine receptor; assay: Displacement of [3H]quinuclidinyl benzilate(QNB) binding from muscarinic receptors of rat cerebral cortex; 2000-4800; assay type: tissue-based
[14] = target: Muscarinic acetylcholine receptor; assay: Displacement of [3H]- oxotremorine-M (OXO-M) binding from muscarinic receptors of rat cerebral cortex; 10-30; assay type: tissue-based
[15] = target: Muscarinic acetylcholine receptor; assay: Displacement of [3H]quinuclidinyl benzilate(QNB) binding from muscarinic receptors of rat cerebral cortex; 36000-40000; assay type: tissue-based
[16] = target: Muscarinic acetylcholine receptor; assay: Displacement of [3H]- oxotremorine-M (OXO-M) binding from muscarinic receptors of rat cerebral cortex; 90-155; assay type: tissue-based
[17] = target: Muscarinic acetylcholine receptor; assay: Displacement of [3H]quinuclidinyl benzilate(QNB) binding from muscarinic receptors of rat cerebral cortex; 3400-10000; assay type: tissue-based
[18] = target: Muscarinic acetylcholine receptor; assay: Displacement of [3H]- oxotremorine-M (OXO-M) binding from muscarinic receptors of rat cerebral cortex; 65-110; assay type: tissue-based
[19] = target: Muscarinic acetylcholine receptor; assay: Displacement of [3H]quinuclidinyl benzilate(QNB) binding from muscarinic receptors of rat cerebral cortex; assay type: tissue-based
[20] = target: Muscarinic acetylcholine receptor; assay: Displacement of [3H]- oxotremorine-M (OXO-M) binding from muscarinic receptors of rat cerebral cortex; 205-310; assay type: tissue-based
[21] = target: Muscarinic acetylcholine receptor; assay: Displacement of [3H]- oxotremorine-M (OXO-M) binding from muscarinic receptors of rat cerebral cortex; 155-265; assay type: tissue-based
[22] = target: Muscarinic acetylcholine receptor; assay: Displacement of [3H]quinuclidinyl benzilate(QNB) binding from muscarinic receptors of rat cerebral cortex; 3400-8000; assay type: tissue-based
[23] = target: Muscarinic acetylcholine receptor; assay: Displacement of [3H]- oxotremorine-M (OXO-M) binding from muscarinic receptors of rat cerebral cortex; assay type: tissue-based
[24] = target: Muscarinic acetylcholine receptor; assay: Displacement of [3H]quinuclidinyl benzilate(QNB) binding from muscarinic receptors of rat cerebral cortex; 2500-5600; assay type: tissue-based
[25] = target: Muscarinic acetylcholine receptor; assay: Displacement of [3H]quinuclidinyl benzilate(QNB) binding from muscarinic receptors of rat cerebral cortex; 4800-6300; assay type: tissue-based
[26] = target: Muscarinic acetylcholine receptor; assay: Displacement of [3H]- oxotremorine-M (OXO-M) binding from muscarinic receptors of rat cerebral cortex; 44-170; assay type: tissue-based
[27] = target: Muscarinic acetylcholine receptor; assay: Displacement of [3H]- oxotremorine-M (OXO-M) binding from muscarinic receptors of rat cerebral cortex; 83-128; assay type: tissue-based
[28] = target: Muscarinic acetylcholine receptor; assay: Displacement of [3H]quinuclidinyl benzilate(QNB) binding from muscarinic receptors of rat cerebral cortex; 6200-9000; assay type: tissue-based
[29] = target: Muscarinic acetylcholine receptor; assay: Displacement of [3H]quinuclidinyl benzilate(QNB) binding from muscarinic receptors of rat cerebral cortex; 12500-16500; assay type: tissue-based
[30] = target: Muscarinic acetylcholine receptor; assay: Displacement of [3H]- oxotremorine-M (OXO-M) binding from muscarinic receptors of rat cerebral cortex; 50-65; assay type: tissue-based

With `C#CCO/N=C/[C@H]1CN2CC[C@H]1C2` the IC50 [1] was 25 nM, the Ratio [2] was 10.6 and the ED50 (Rattus norvegicus [3]) was 0.17 mg/kg. For the same compound, the “ED Arec” value (Rattus norvegicus [4]) was 0.016 mg/kg, the Ratio [5] was 78 and the IC50 [6] was 1950 nM.
For `CO/N=C(\C)C12CCCN(CC1)C2` (stereo not drawn), the IC50 [7] was 3400 nM, the Ratio [5] was 74 and the IC50 [8] was 46 nM.
With `CCCO/N=C/[C@H]1CN2CC[C@H]1C2` the IC50 [9] was 2900 nM, the IC50 [10] was 278 nM and the Ratio [5] was 10.
Work on `CO/N=C(\C)C1CN2CCC1CC2` (stereo not drawn) yielded an IC50 [11] of 2000 nM, an IC50 [12] of 69 nM and a Ratio [5] of 29.
For `CO/N=C/[C@H]1CN2CC[C@H]1C2`, the IC50 [13] was 3100 nM, the Ratio [2] was 1.5 and the ED50 (Rattus norvegicus [3]) was 0.0031 mg/kg. For the same compound, the IC50 [14] was 15 nM and the “ED Arec” value (Rattus norvegicus [4]) was 0.0021 mg/kg.
`CO/N=C/C12CCN(CC1)C2` showed an IC50 [15] of 38000 nM, a Ratio [5] of 321 and an IC50 [16] of 118 nM.
Work on `CO/N=C/C1CN2CCC1CC2` (stereo not drawn) yielded an IC50 [17] of 5800 nM, an IC50 [18] of 95 nM and a Ratio [5] of 61.
Compound `CCCCO/N=C/[C@H]1CN2CC[C@H]1C2` has an IC50 [19] of 3600 nM, an IC50 [20] of 252 nM and a Ratio [5] of 14.
Work on `CC/C(=N\OC)[C@H]1CN2CC[C@H]1C2` yielded an IC50 [21] of 208 nM, an IC50 [22] of 5200 nM and a Ratio [5] of 25.
Work on `CCO/N=C/[C@H]1CN2CC[C@H]1C2` yielded a Ratio [2] greater than 7.8, an IC50 [23] of 160 nM and an ED50 (Rattus norvegicus [3]) greater than 1.8 mg/kg. The “ED Arec” value (Rattus norvegicus [4]) was 0.23 mg/kg, the Ratio [5] was 23 and the IC50 [24] was 3700 nM.
`CO/N=C/C12CCCN(CC1)C2` (stereo not drawn) showed an IC50 [25] of 5200 nM, an IC50 [26] of 60 nM and a Ratio [5] of 87.
Work on `CO/N=C(\C)[C@H]1CN2CC[C@H]1C2` yielded an IC50 [27] of 99 nM, an IC50 [28] of 7500 nM and a Ratio [5] of 76.
Compound `CO/N=C(\C)C12CCN(CC1)C2` has an IC50 [29] of 14000 nM, an IC50 [30] of 55 nM and a Ratio [5] of 255.
`COC(=O)C1CN2CCC1CC2` (stereo not drawn) gave a Ratio [5] of 48.
